Test [1] addresses recombinant human NF-kappaB-inducing kinase (NIK/MAP3K14) (Homo sapiens, UniProt Q99558). The test can be described thus: Inhibition of auto-phosphorylation of recombinant human NIK/MAP3K14 activity (AlphaScreen). Type of test: biochemical. Conditions: GST-tagged NIK/MAP3K14 1 nM, 5 μM ATP, 2 h at 25° C.; average of values obtained. The procedure:
Inhibition of Auto-Phosphorylation of Recombinant Human NF-kappaB-Inducing Kinase (NIK/MAP3K14) Activity (AlphaScreen®)
NIK/MAP3K14 auto-phosphorylation activity was measured using the AlphaScreen® (αscreen) format (Perkin Elmer). All compounds tested were dissolved in dimethyl sulfoxide (DMSO) and further dilutions were made in assay buffer. The final DMSO concentration was 0.7% (v/v) in assays. The assay buffer was 50 mM Tris pH 7.5 containing 1 mM EGTA (ethylene glycol tetraacetic acid), 1 mM DTT (dithiothreitol), 0.1 mM Na3VO4, 5 mM MgCl2, and 0.01% Tween® 20. The assays were carried out in 384 well Proxiplates (Perkin Elmer). The incubations consisted of the compound, 5 μM Adenosine-5′-triphosphate (ATP), and 1 nM NIK/MAP3K14. Incubations were initiated by the addition of GST-tagged NIK/MAP3K14 enzyme, carried out for 2 h at 25° C. and terminated by addition of stop buffer containing anti-phospho-IKK Ser176/180 antibody. Protein A Acceptor and Glutathione-Donor beads were added before reading using an EnVision Multilabel Plate Reader (Perkin Elmer). The signal obtained in the wells was normalized using high (full enzyme activity, 0.7% DMSO) and low controls (no enzyme activity, 0.7% DMSO, no ATP). IC50's were determined by fitting a sigmoidal curve to % inhibition of control versus Log10 compound concentration.
(Bead proximity is the source of the signal in Alpha formats.)

Test [2] deals with p-IKKα levels in L363 (NIK translocated multiple myeloma) cells. The test can be described thus: Effect of compounds on p-IKKα levels in L363 cells (AlphaLISA SureFire Ultra). The format is cell-based, human. Conditions: Homo sapiens, 10 μM MG132, 6 h, average of values obtained, read-out: Assay 2 IC50. As for the experimental part:
Effect of Compounds on p-IKKα Levels in L363 (NIK Translocated Multiple Myeloma) Cells
All compounds tested were dissolved and serially diluted in DMSO, 1:3 dilution for 11 points in an Echo compatible plate. 100% DMSO was added to columns 12 and 24 of the plate to serve as high and low signal controls. This compound plate was used to spot 20 nL of compound or DMSO into a Greiner 384 well TC plate (781080). The final DMSO concentration was 0.3% (v/v) in cell assays. Human L363 cells (ATCC) were cultured in RPMI1640 medium supplemented with GlutaMax, non-essential amino acids, sodium pyruvate and 10% fetal bovine serum. Cells were routinely maintained at densities of […]-2×10^6 cells per mL at 37° C. in a humidified 5% CO2 atmosphere incubator. Cells were passaged twice a week splitting back to obtain the low density. The day before the assay, cells were washed twice in HBSS (Hank's Balanced Salt Solution), resuspended in Dulbecco's Modified Eagle Medium (DMEM)+0.5% IgG and protease free BSA (Jackson Immuno Research Laboratories), +/−250 ng/ml recombinant human B-cell activating factor (BAFF/BLyS/TNFSF13B) and incubated overnight at 37° C. in a humidified 5% CO2 atmosphere (bulk stimulation with or without BAFF). The next day, the cell concentration was adjusted to 1×10^7 cells/ml in DMEM+/−250 ng/ml BAFF+/10 μM MG132 and plated at […] into compound or DMSO spotted 384 well TC plates. Seeded cells were incubated at 37° C. in a humidified 5% CO2 atmosphere for 6 h. After 6 h, the plates were removed from the incubator and cell lysis was achieved by the addition of 2.5 μl 5×lysis buffer containing protease and phosphatase inhibitors, followed by shaking on a plate shaker at room temperature for 15 min. At the end of this incubation, lysed cells were sequentially treated and incubated with acceptor and donor bead mixes according to the manufacturer's protocol for a 1 plate/2-incubation suspension cell assay (AlphaLISA SureFire Ultra p-IKKa (Ser 176/180) Assay Kit (Perkin Elmer). Plates were read using an EnVision Multilabel Plate Reader (Perkin Elmer). Within an experiment, a concentration response curve for each compound was run in duplicate. The signal obtained in the test wells was normalized using high signal (BAFF stimulated cells, DMSO, MG132) and low signal (unstimulated cells, DMSO) controls. To determine the IC50, a sigmoidal curve was fitted to the plot of % inhibition versus Log10 compound concentration.

Where [3] appears, read: L-363, 6 h, 250 ng/ml BAFF stimulated.
[4] abbreviates: L-363, 250 ng/ml BAFF stimulated.

pIC50: −log10 of the molar value. Like-named read-outs stand apart in the source and are kept apart here.

Experimental findings from US20230416256A1, “SMALL MOLECULE INHIBITORS OF NF-kB INDUCING KINASE” (Janssen Pharmaceutica NV, priority 2020, published 2023) are described below.

recombinant human NF-kappaB-inducing kinase (NIK/MAP3K14), sequence (Q99558 whole entry): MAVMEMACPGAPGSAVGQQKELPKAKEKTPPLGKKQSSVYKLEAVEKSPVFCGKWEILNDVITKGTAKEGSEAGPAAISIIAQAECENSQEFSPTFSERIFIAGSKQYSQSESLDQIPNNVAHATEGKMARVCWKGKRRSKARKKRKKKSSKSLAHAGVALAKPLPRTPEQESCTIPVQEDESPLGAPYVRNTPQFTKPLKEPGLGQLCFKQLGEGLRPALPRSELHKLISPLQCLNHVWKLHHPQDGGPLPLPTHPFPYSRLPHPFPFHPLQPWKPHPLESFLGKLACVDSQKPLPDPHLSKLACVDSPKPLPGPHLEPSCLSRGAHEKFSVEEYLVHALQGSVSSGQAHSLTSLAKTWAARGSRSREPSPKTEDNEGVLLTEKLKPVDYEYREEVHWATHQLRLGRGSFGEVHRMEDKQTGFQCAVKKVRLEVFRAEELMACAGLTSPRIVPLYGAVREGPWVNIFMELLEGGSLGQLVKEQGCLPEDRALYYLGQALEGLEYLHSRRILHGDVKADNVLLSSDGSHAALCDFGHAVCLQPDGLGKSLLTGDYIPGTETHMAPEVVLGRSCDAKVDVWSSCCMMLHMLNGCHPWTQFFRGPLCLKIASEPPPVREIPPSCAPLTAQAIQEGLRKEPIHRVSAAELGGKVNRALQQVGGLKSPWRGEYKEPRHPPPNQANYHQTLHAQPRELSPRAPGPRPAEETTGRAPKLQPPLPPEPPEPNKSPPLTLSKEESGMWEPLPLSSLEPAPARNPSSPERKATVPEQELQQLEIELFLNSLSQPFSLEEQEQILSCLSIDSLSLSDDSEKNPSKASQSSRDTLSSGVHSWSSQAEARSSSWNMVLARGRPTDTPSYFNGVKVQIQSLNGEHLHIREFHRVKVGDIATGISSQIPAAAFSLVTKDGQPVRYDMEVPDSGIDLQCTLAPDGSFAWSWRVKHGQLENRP

Turning to `O[C@]1(c2cccc(-c3csc(-c4c[nH]c5ncccc45)n3)c2)CCc2cccnc21` (single isomer, unassigned) [Example 1], the pIC50 in test [1] and in test [2] (setting [3]) was less than 6.30 each time.
As for `O[C@@]1(c2cccc(-c3csc(-c4c[nH]c5ncccc45)n3)c2)CCc2cccnc21` (single isomer, unassigned) [Example 2], the negative-log IC50 (pIC50) (as a rule, −log10 of the IC50, conventionally taken in molar units) in test [1] is no less than 7.00; in test [2] (setting [3]) it was 6.30 to 7.00.
Turning to `CN1CC[C@@](O)(c2cccc(-c3cnc(-c4c[nH]c5ncccc45)s3)c2)C1=O` (single isomer, unassigned) [Example 3], the negative logarithm of the IC50 (pIC50) in test [1] is 6.30 to 7.00; in test [2] (setting [4]), less than 6.30.
For `CN1CC[C@](O)(c2cccc(-c3cnc(-c4c[nH]c5ncccc45)s3)c2)C1=O` (single isomer, unassigned) [Example 4], in that order: less than 6.30 and less than 6.30.
As to `O[C@@]1(c2cccc(-c3csc(-c4c[nH]c5ncncc45)n3)c2)CCc2cccnc21` (single isomer, unassigned) [Example 5], the pIC50 in test [1] was no less than 7.00; in test [2] (setting [3]) it was 6.30 to 7.00.
`O[C@]1(c2cccc(-c3csc(-c4c[nH]c5ncncc45)n3)c2)CCc2cccnc21` (single isomer, unassigned) [Example 6]: the pIC50 was 6.30 to 7.00 in test [1] and less than 6.30 in test [2] (setting [3]).
For `O[C@@]1(c2cccc(-c3nc(-c4c[nH]c5ncccc45)cs3)c2)CCc2cccnc21` (single isomer, unassigned) [Example 22], in that order: no less than 7.00 and 6.30 to 7.00.
In the same order, the values of `O[C@]1(c2cccc(-c3nc(-c4c[nH]c5ncccc45)cs3)c2)CCc2cccnc21` (single isomer, unassigned) [Example 23] are 6.30 to 7.00 and less than 6.30.
For `O[C@]1(c2cccc(-c3csc(-c4c[nH]c5ncccc45)n3)c2)CCc2scnc21` (single isomer, unassigned) [Example 31], the values for the negative-log IC50 (pIC50) in test [1] and in test [2] (setting [3]) were 6.30 to 7.00 and less than 6.30, respectively.
For `O[C@@]1(c2cccc(-c3csc(-c4c[nH]c5ncccc45)n3)c2)CCc2scnc21` (single isomer, unassigned) [Example 32], in that order: no less than 7.00 and no less than 7.00.
With `O[C@@]1(c2cccc(-c3csc(-c4c[nH]c5ncccc45)n3)c2)C=Cc2cccnc21` (single isomer, unassigned) [Example 33], the values for the pIC50 in test [1] and in test [2] (setting [3]) were no less than 7.00 and less than 6.30, respectively.
For `O[C@]1(c2cccc(-c3csc(-c4c[nH]c5ncccc45)n3)c2)C=Cc2cccnc21` (single isomer, unassigned) [Example 34], in that order: less than 6.30 and less than 6.30.
For `CC1(C)Cc2cccnc2[C@@]1(O)c1cccc(-c2csc(-c3c[nH]c4ncccc34)n2)c1` (single isomer, unassigned) [Example 35], in that order: less than 6.30 and less than 6.30.
With `CC1(C)Cc2cccnc2[C@]1(O)c1cccc(-c2csc(-c3c[nH]c4ncccc34)n2)c1` (single isomer, unassigned) [Example 36], the pIC50 is no less than 7.00 in test [1] and less than 6.30 in test [2] (setting [3]).
For `O[C@]1(c2cccc(-c3csc(-c4c[nH]c5ncccc45)n3)c2)CCCn2ccnc21` (single isomer, unassigned) [Example 37], in that order: less than 6.30 and less than 6.30.
For `O[C@@]1(c2cccc(-c3csc(-c4c[nH]c5ncccc45)n3)c2)CCCn2ccnc21` (single isomer, unassigned) [Example 38], in that order: no less than 7.00 and no less than 7.00.
Consider `CN1CC[C@](O)(c2cccc(-c3csc(-c4c[nH]c5nccnc45)n3)c2)C1=O` (single isomer, unassigned) [Example 39], for which the pIC50 in test [1] and in test [2] (setting [4]) was less than 6.30 each time.
Consider `CN1CC[C@@](O)(c2cccc(-c3csc(-c4c[nH]c5nccnc45)n3)c2)C1=O` (single isomer, unassigned) [Example 40], for which the pIC50 in test [1] was no less than 7.00; in test [2] (setting [4]), 6.30 to 7.00.
In the same order, the values of `CN1CC[C@@](O)(c2cccc(-c3csc(-c4c[nH]c5ncccc45)n3)c2)C1=O` (single isomer, unassigned) [Example 47] are no less than 7.00 and 6.30 to 7.00.
In the same order, the values of `CN1CC[C@](O)(c2cccc(-c3csc(-c4c[nH]c5ncccc45)n3)c2)C1=O` (single isomer, unassigned) [Example 48] are less than 6.30 and less than 6.30.
Take `CN1CC[C@](O)(c2cccc(-c3csc(-c4c[nH]c5ncncc45)n3)c2)C1=O` (single isomer, unassigned) [Example 52]: the values for the negative-log IC50 (pIC50) in test [1] and in test [2] (setting [4]) were 6.30 to 7.00 and less than 6.30, respectively.
Take `C[C@@](O)(c1cccc(-c2csc(-c3c[nH]c4ncccc34)n2)c1)c1ccccn1` (single isomer, unassigned) [Example 60]: the pIC50 in test [1] and in test [2] (setting [3]) was less than 6.30 each time.
As for `C[C@](O)(c1cccc(-c2csc(-c3c[nH]c4ncccc34)n2)c1)c1ccccn1` (single isomer, unassigned) [Example 61], the pIC50 in test [1] and in test [2] (setting [3]) was less than 6.30 throughout.
With `C[C@](O)(c1cccc(-c2csc(-c3c[nH]c4ncccc34)n2)c1)c1nccs1` (single isomer, unassigned) [Example 64], the pIC50 in test [1] and in test [2] (setting [3]) was less than 6.30 each time.
On to `C[C@@](O)(c1cccc(-c2csc(-c3c[nH]c4ncccc34)n2)c1)c1nccs1` (single isomer, unassigned) [Example 65], for which the figures for the negative-log IC50 (pIC50) in test [1] and in test [2] (setting [3]) were no less than 7.00 and less than 6.30, respectively.
As for `C[C@@](O)(c1cccc(-c2csc(-c3c[nH]c4nccnc34)n2)c1)c1ncc[nH]1` (single isomer, unassigned) [Example 77], the pIC50 in test [1] and in test [2] (setting [3]) was less than 6.30 throughout.
`C[C@](O)(c1cccc(-c2csc(-c3c[nH]c4nccnc34)n2)c1)c1ncc[nH]1` (single isomer, unassigned) [Example 78]: the pIC50 in test [1] and in test [2] (setting [3]) was less than 6.30 throughout.
As for `Cn1ccnc1[C@@](C)(O)c1cccc(-c2csc(-c3c[nH]c4ncccc34)n2)c1` (single isomer, unassigned) [Example 79], the negative logarithm of the IC50 (pIC50) in test [1] and in test [2] (setting [3]) was less than 6.30 throughout.
As for `C[C@@](O)(c1cccc(-c2csc(-c3c[nH]c4ncccc34)n2)c1)c1ncc[nH]1` (single isomer, unassigned) [Example 80], the pIC50 in test [1] and in test [2] (setting [3]) was less than 6.30 throughout.
As for `O=C1Nc2cccnc2[C@]1(O)c1cccc(-c2csc(-c3c[nH]c4ncccc34)n2)c1` (single isomer, unassigned) [Example 89], the pIC50 in test [1] and in test [2] (setting [4]) was less than 6.30 each time.
As for `O=C1Nc2cccnc2[C@@]1(O)c1cccc(-c2csc(-c3c[nH]c4ncccc34)n2)c1` (single isomer, unassigned) [Example 90], the pIC50 in test [1] and in test [2] (setting [4]) was less than 6.30 throughout.
With `CN1CC[C@@](O)(c2cccc(-c3nc(-c4c[nH]c5ncccc45)sc3F)c2)C1=O` (single isomer, unassigned) [Example 99], the results for the negative logarithm of the IC50 (pIC50) in test [1] and in test [2] (setting [4]) were no less than 7.00 and less than 6.30, respectively.
